Results taken from PMC6028453, “BrlR from Pseudomonas aeruginosa is a receptor for both cyclic di-GMP and pyocyanin” (Nature Communications, 2018).

Tests used:
BrlR-C = target: T1, BrlR-C (Pseudomonas aeruginosa, UniProt Q9HUT5); assay: FP competition experiment, BrlR-C; type: binding; details: 550 μM BrlR-C, 1 nM F-c-di-GMP
T1 construct: His6 (cleaved yes); made in house; host or cells: E. coli (same protocol as BrlR, induction at 18 °C)
Experimental: Supplementary Figure 11: FP analyses of F-c-di-GMP binding to BrlR-C. (a) Isotherms of BrlR-C binding to F-c-di-GMP. The binding experiment was carried out at 25 °C in a buffer containing 150 mM NaCl, 25 mM Tris·HCl (pH 7.5), and 1 nM F-c-di-GMP. Increasing concentrations of BrlR-C were titrated into the reaction mixture to obtain the binding isotherms. (b) Fluorescence polarization competition experiment of BrlR-C. As a control, 550 μM BrlR-C was added to the reaction tube containing 1 nM F-c-di-GMP, and different competitors were respectively added in the solution and the values of millipolarization were recorded.
(§1) (1 picture or pasted object on this page, not shown here)

BrlR = target: T2, BrlR (Pseudomonas aeruginosa, UniProt Q9HUT5); assay: FP competition experiment, wild-type BrlR; type: binding; details: 320 μM BrlR, 1 nM F-c-di-GMP, 760 μM c-di-GMP added
T2 construct: His6-SUMO (N, cleaved yes); made in house; host or cells: E. coli BL21 DE3
T2 sequence (Q9HUT5 whole entry): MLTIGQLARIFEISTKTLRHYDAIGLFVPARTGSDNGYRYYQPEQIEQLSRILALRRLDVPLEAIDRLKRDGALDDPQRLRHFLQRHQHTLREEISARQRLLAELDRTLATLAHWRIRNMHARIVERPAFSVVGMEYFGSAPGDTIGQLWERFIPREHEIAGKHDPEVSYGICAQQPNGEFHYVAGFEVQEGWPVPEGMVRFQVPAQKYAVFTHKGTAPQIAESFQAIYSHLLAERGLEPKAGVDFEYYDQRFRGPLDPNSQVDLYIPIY
Experimental: Supplementary Figure 4: Fluorescence polarization competition experiment. Wt BrlR was added to a final concentration of 320 μM in the reaction buffer containing 1 nM F-c-di-GMP, and the binding […]
curve was recorded. […] After the addition of
760 μM c-di-GMP (indicated with an arrow in the figure), an apparent competition with the fluoresceinated c-di-GMP could be observed by the remarkable decrease in millipolarization units.
as §1

[1] = tested on: brlR promoter activity (C2E mut2); assay: β-galactosidase assay, C2E mut2; type: cell-based, Pseudomonas aeruginosa
Experimental: (§2) We also performed β-galactosidase activity assays using a PbrlR-brlR-lacZ reporter construct to investigate the transcriptional function of BrlR mutants in vivo. […] To confirm the effect of c-di-GMP in P. aeruginosa, we carried out real-time quantitative PCR analyses. Following a previous report, we introduced the diguanylate cyclase PA4843 into a WT P. aeruginosa strain carrying either pHERD20T-empty or pHERD20T-PA4843. The transcription level of brlR was analyzed using the brlR 5 F and brlR 3 R primers (Supplementary Table 1). The transcriptional level of brlR in pHERD20T-PA4843 strain is 4.5 ± 1.3-fold higher than that in the pHERD20T-empty strain (Fig. 4h).
(§3) β-galactosidase activity was assayed with P. aeruginosa PA01 ΔbrlR strain carrying plasmid pME6522-borne transcriptional lacZ fusions. P. aeruginosa carrying the empty vector was used as the […]. The reporter plasmids are derivatives of the pME6522 plasmid in which multiple cloning sites were inserted before the LacZ with the promoter and coding regions of brlR with diverse mutations. These reporter plasmids were transformed into the reporter strain. Overnight cultures were diluted 20-fold with LB medium supplemented with appropriate antibiotics. […]

brlR transcription = assay: qRT-PCR of brlR transcript; type: cell-based, P. aeruginosa PAO1; details: elevated c-di-GMP by diguanylate cyclase PA4843 in PAO1
Experimental: PAO1 WT strains were grown under different conditions. For c-di-GMP effects, overexpression of PA4843 in PAO1 (PAO1/pHERD20T-PA4843) relative to WT cells (PAO1/ pHERD20T) was determined. When P. aeruginosa strains entered mid-log phase, arabinose was added to induce gene expression. To test pyocyanin’s effect, a P. aeruginosa PAO1 WT strain cells with high pyocyanin production was determined relative to a ΔphzA1-G1/phzA2-G2 strain not producing phenazine and a ΔphzMSH strain not producing pyocyanin.
Total RNA was extracted using a MiniBEST Universal RNA Extraction Kit (TaKaRa) and cDNA synthesis was performed using a PrimeScript RT reagent Kit (TaKaRa). Primers for RT-PCR listed in Supplementary Table 1 were designed using the program PrimerExpress (Applied Biosystems). The RT-PCR reactions were performed on a CFX96 Real-Time PCR Detection System (Bio-Rad) using SYBR Premix Ex Taq™ (TaKaRa). Expression of the target genes was normalized to the expression of 16 S RNA. The relative transcript abundance was calculated according to the 2^−ΔΔCt method. Five biological replicates were performed per sample. The data were analyzed with a one-tailed t-test (***P ≤ 0.001).

[2] = tested on: brlR promoter activity (wild-type BrlR); assay: β-galactosidase assay, PbrlR-brlR-lacZ reporter, wild-type BrlR; type: cell-based, Pseudomonas aeruginosa; details: ΔbrlR strain, pHERD20T-PA4843 vs pHERD20T
Experimental: as §2, §3

BrlR R31A DNA binding = target: T3, BrlR R31A DNA binding (Pseudomonas aeruginosa, UniProt Q9HUT5, R31A); assay: EMSA, BrlR R31A; type: biochemical
T3 construct: His6-SUMO (N, cleaved yes); made in house; host or cells: E. coli BL21 DE3
T3 sequence (Q9HUT5 whole entry R31A): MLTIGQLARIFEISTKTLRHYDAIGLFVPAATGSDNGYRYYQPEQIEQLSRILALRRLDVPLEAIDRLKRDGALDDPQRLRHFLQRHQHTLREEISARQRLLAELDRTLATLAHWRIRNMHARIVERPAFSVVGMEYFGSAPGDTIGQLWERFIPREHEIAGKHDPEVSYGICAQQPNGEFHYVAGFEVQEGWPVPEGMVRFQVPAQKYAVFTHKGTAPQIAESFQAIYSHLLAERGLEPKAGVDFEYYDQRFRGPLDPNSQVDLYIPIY
Experimental: (§4) A 6-carboxy-fluorescein (FAM)-labeled 36-bp brlR promoter DNA (PbrlR) or 80-bp mexA/mexE promoter DNA (PmexA/PmexE) probes (~0.375 pmol), BrlR protein and varying amounts of inducers were incubated in binding buffer (10 mM Tris HCl [pH 7.4], 50 mM KCl, 1 mM DTT, […] and 5 ng/mL poly [dI-dC]) for 60 min at 25 °C. Finally, glycerol was added to a concentration of 6.5%. The samples were subjected to a 5% polyacrylamide gel electrophoresis and run in 0.5 × Tris-borate-EDTA buffer at 80 V for 1 h at room temperature. Imaging and data analyses were performed using a Typhoon Scanner (GE Healthcare) and Imagequant software. The probes used are listed in Supplementary Table 1.

BrlR Y270A DNA binding = target: T4, BrlR Y270A DNA binding (Pseudomonas aeruginosa, UniProt Q9HUT5, Y270A); assay: EMSA, BrlR Y270A; type: biochemical
T4 construct: His6-SUMO (N, cleaved yes); made in house; host or cells: E. coli BL21 DE3
T4 sequence (Q9HUT5 whole entry Y270A): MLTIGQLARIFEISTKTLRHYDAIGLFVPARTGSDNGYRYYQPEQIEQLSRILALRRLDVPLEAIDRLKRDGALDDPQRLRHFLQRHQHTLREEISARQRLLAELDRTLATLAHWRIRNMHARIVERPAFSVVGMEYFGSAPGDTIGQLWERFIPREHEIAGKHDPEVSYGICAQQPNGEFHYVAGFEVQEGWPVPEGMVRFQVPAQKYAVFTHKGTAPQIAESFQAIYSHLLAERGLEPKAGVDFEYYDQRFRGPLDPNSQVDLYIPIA
Experimental: as §4

BrlR Y40A DNA binding = target: T5, BrlR Y40A DNA binding (Pseudomonas aeruginosa, UniProt Q9HUT5, Y40A); assay: EMSA, BrlR Y40A; type: biochemical
T5 construct: His6-SUMO (N, cleaved yes); made in house; host or cells: E. coli BL21 DE3
T5 sequence (Q9HUT5 whole entry Y40A): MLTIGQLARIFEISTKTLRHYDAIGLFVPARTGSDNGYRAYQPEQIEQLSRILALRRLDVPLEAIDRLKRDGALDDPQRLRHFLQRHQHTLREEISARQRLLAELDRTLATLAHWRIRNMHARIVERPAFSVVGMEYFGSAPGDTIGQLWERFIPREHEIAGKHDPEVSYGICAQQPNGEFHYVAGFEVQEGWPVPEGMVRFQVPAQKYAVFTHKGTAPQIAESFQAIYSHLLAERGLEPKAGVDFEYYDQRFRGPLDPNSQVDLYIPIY
Experimental: as §4

T1 sequence (Q9HUT5 120-270): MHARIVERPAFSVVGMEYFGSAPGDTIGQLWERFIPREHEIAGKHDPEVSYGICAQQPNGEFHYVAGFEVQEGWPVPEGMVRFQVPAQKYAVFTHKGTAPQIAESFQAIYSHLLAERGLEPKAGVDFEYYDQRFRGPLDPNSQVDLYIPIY

Compound: Nc1nc2c(ncn2[C@@H]2O[C@@H]3COP(=O)(O)O[C@H]4[C@@H](O)[C@H](n5cnc6c(=O)[nH]c(N)nc65)O[C@@H]4COP(=O)(O)O[C@H]3[C@H]2O)c(=O)[nH]1 [c-di-GMP, cyclic diguanylate monophosphate]
- competition with F-c-di-GMP binding to BrlR-C (BrlR-C): not
- competition with F-c-di-GMP binding to BrlR (BrlR): outcompeted specifically
- increase at high vs low c-di-GMP concentration (β-galactosidase activity) [1]: 2.2 fold
- transcriptional level of brlR, pHERD20T-PA4843 strain vs pHERD20T-empty strain (brlR transcription): 4.5 ± 1.3 fold
- increase at high vs low c-di-GMP concentration (β-galactosidase activity) [2]: 3.3 fold
- DNA bound in the presence vs absence of c-di-GMP (BrlR R31A DNA binding): ~ 1.3 fold
- DNA bound in the presence vs absence of c-di-GMP (BrlR Y270A DNA binding): ~ 3.4 fold
- DNA bound in the presence vs absence of c-di-GMP (BrlR Y40A DNA binding): ~ 1.1 fold
